Assay results from a melting point compilation (Tetko et al.; mined from patent text by program, amines drawn as free bases though some values may be those of a salt).

| Structure (SMILES) | melting point [°C] |
| --- | --- |
| CCOC1=CC(=O)CC(c2ccccc2O)C1 (stereo not drawn) | 194 to 197 |
| CCCCCCCCCCCCCCOC(=O)CCCCc1cc(O)c(O)c([N+](=O)[O-])c1 | 46 to 47 |
| Clc1cccc(Cl)c1Cc1c[nH]cn1 | 142 to 145 |
| CCOC(=O)C(=O)Nc1ccc(C)cc1[N+](=O)[O-] | 126 |
| CCCc1cc(C(=O)NC2=NC(=O)CN2C)ccc1OC(C(=O)NS(=O)(=O)c1ccc(C(C)C)cc1)c1ccc2c(c1)OCO2 (stereo not drawn) | 137 to 139 |
| C#Cc1cn(C2CC(N=[N+]=[N-])C(COC(c3ccccc3)(c3ccccc3)c3ccccc3)O2)c(=O)[nH]c1=O (stereo not drawn) | 110 |
| COc1ccc2oc(Cc3cccnc3)c(CC#N)c2c1 | 123 |
| CCOC(=O)C1Oc2cc(C(=O)c3ccnn3C)c(Cl)c(Cl)c2O1 (stereo not drawn) | 124 to 126 |
| CCC(=O)c1ccc(OCCCCl)cc1 | 41 to 43 |
| COc1ccc(C(=O)Nc2c(Cl)cncc2Cl)c2c1oc1ccc(NCC(=O)O)cc12 | > 260 |
| Cc1cc2c(cc1C)C(N)CC(C)(C)O2 (stereo not drawn) | > 270 |
| CCn1cc(C(=O)O)c(=O)c2cc(F)c(N3CC4CCC3CN4)nc21 (stereo not drawn) | 250 to 253 |
| Cc1noc(NS(=O)(=O)c2cccc3c(NC(C)C)cccc23)c1C | 156 to 159 |
| CC(C)(C)c1ccc(C(=O)Nc2cn3nc(NC4CCCC4)ccc3n2)cc1 | 272 to 273 |
| Cc1cc(C=O)ccc1C(O)c1cccnc1 (stereo not drawn) | 97.5 to 99 |
| CCCCNC(=O)N1CC(Oc2ccc(C(F)(F)F)cc2)C1 | 132 to 134 |
| CCOc1cc2c(O)c(Br)cnc2nc1C | 266 to 267 |
| O=C(Nc1ccc(C(CC2CCCC2)C(=O)O)cc1)c1cccnc1 (stereo not drawn) | 160 to 163 |
| COC(=O)C(C#N)=Cc1cc(-n2c(=O)cc(C(F)(F)F)n(C)c2=O)ccc1Cl | 187 to 188 |
| Cc1c(N2CCC(N)C(C)(C)C2)c(F)cc2c(=O)c(C(=O)O)cn(C3CC3)c12 (stereo not drawn) | 195 to 198 |
| Cc1ccc(C(=O)C2=C(O)C(=O)N(c3ncc(S(=O)(=O)c4ccc([N+](=O)[O-])cc4)s3)C2c2ccc(C(=O)N(C)C)cc2)cc1 (stereo not drawn) | 205 |
| COc1cc(COc2nn(C)cc2/C=C\c2cscn2)ccc1OCc1nc(-c2ccco2)oc1C | 97 to 98 |
| COC(=O)C=Cc1ccc(OC)c(C)c1 | 70 to 73 |
| COC(=O)C1=C(C)Nc2nccn2C1c1cccc(N)c1 (stereo not drawn) | 224 to 225 |

| Structure (SMILES) | melting point [°C] |
| --- | --- |
| OC1CC=C(c2ccc(Cl)cc2)CC1 (stereo not drawn) | 108 to 112 |
| CN1CCN(S(=O)(=O)CCCO)CC1 | 90 to 93 |
| NC(=O)CCn1ccn(C2CCc3ccccc3C2)c1=S (stereo not drawn) | 180 to 181 |
| CC(=O)NC[C@H]1CN(c2ccc(N3CCC(n4nnc(N5CCN(C(C)=O)CC5)n4)CC3)c(F)c2)C(=O)O1 | 216 to 218 |
| CC(O)=C(C#N)C(=O)Nc1ccc(OC(F)(F)F)c(Br)c1 | 178 to 179 |
| CSc1nc(NC2CCCCC2)c2nonc2n1 | 129 to 130 |
| CC#CCOc1ccc(S(=O)(=O)C2(C(=O)O)CCN(Cc3ccc(Cl)c(Cl)c3)CC2)cc1 | 213 |
| CCN(CCO)C(=O)C1=C(C(=O)Nc2cc(OC3CCCC3)c(Cl)cc2F)CCCC1 | 132 to 133 |
| CC(=O)OCc1[nH]c(C(=O)OCc2ccccc2)c(C)c1C(C)=O | 97 to 100 |
| Cc1c(NC(=O)OC(C)(C)C)cc2c(c1C)OC(C)(C)C2=O | 154 to 155 |
| CCCCN1C(=O)CCC(C)(C)c2cc(C(=O)Nc3ccc(C(=O)O)cc3)ccc21 | 269 |
| CC(=O)Nc1ccc(OC(=O)C2CSC(=O)N2)cc1 (stereo not drawn) | 204 to 205 |
| CC1(C)SC(c2ccncc2)NC1C(=O)O (stereo not drawn) | 149 to 151 |
| O=[N+]([O-])c1cc(Cl)ccc1NCCO | 98 to 100 |
| COc1cc(C=O)ccc1OCC1CO1 (stereo not drawn) | 56 to 58 |
| N#Cc1ccc(O)cc1Cl | 157 to 158 |
| CCCCc1c(C)[nH]c(C(=O)OCC)c1OCC1CO1 (stereo not drawn) | 125 to 127 |
| Cc1cnc(Cl)c(C(=O)O)c1 | 180 |
| COc1cc2c(Nc3ccc(Cl)cc3F)c(C#N)cnc2c(OC)c1OC | 166 to 168 |
| CC(C)(C)OC(=O)N1c2ccccc2CC1COc1ccc(CC2SC(=O)N(C(c3ccccc3)(c3ccccc3)c3ccccc3)C2=O)cc1 (stereo not drawn) | 85.4 to 87.2 |
| [N-]=[N+]=C(S(=O)(=O)C1CCCCC1)S(=O)(=O)C1CCCCC1 | 130 to 131 |
| CCN(CC)C(=O)NC1CC2c3cccc4[nH]cc(c34)CC2N(C)C1 (stereo not drawn) | 171 to 173 |
| CC(=O)NC1(c2ccc(CN3CCN(c4ncccn4)CC3)cc2)CC1 | 145 to 146 |
| CCCCCCCCCCCCCCCCCC(=O)NN(C(=O)CCCCCCCCCCCCCCCCC)C(=O)CCC(=O)NN | 248 to 252 |

The next lines start with the values.

| melting point [°C] | Structure (SMILES) |
| --- | --- |
| 65 to 66.5 | N#CC1c2ccccc2COc2ccccc21 (stereo not drawn) |
| 125 to 128 | CCOc1ccc(-c2nc(OC)ccc2N2CCN(c3ccc(OC)cc3)CC2)cc1 |
| 144 to 146 | CCCc1ccc(Oc2ccc3c(c2)OC(C(F)(F)F)C(C(=O)O)=C3)cc1 (stereo not drawn) |
| 116 to 118 | CSc1ccc(-c2cc(-n3ccc(C(F)(F)F)n3)c3ccccc3n2)cc1 |
| 233 to 235 | O=C1CC(COC(c2ccccc2)(c2ccccc2)c2ccccc2)=NC=C1OCc1ccccc1 |
| 142 | O=C1c2ccccc2C(OCCc2ccccn2)N1c1ccc2ccc(Cl)nc2n1 (stereo not drawn) |
| 205 | O=C1c2ncccc2C(=O)c2c(-c3ccccc3NC(=O)C(F)(F)F)ccnc21 |
| 134 to 135 | COC(=O)c1cc2c3cc(Br)ccc3n(Cc3ccccc3)c2s1 |
| 62 to 64.5 | Cc1nc(-c2cc(C)c(OCCCc3cc(C(F)(F)F)no3)c(C)c2)no1 |
| 161 to 163 | CCN(CC)CCN1C(=O)Nc2ccc([N+](=O)[O-])cc2C1c1ccccc1 (stereo not drawn) |
| 170 to 173 | O=C(O)CC(F)C(=O)c1ccc(-c2ccc(Cl)cc2)cc1 (stereo not drawn) |
| 95.1 | CCOc1cc(-c2ccc(C(F)(F)F)cc2)nc(-c2cccc(C(F)(F)F)c2)c1 |
| 140 | O=C(Nc1cccc(Oc2ccc(Cl)cc2)c1)c1ccn2c1CSC2c1cccnc1 (stereo not drawn) |
| 98.5 to 100 | COc1ccccc1-c1cc(C(C)(C)C)c(O)c(C(C)(C)C)c1 |
| 81 to 83 | C[C@@H](c1ccc(/C=C/c2ccnn2C)cc1)[C@](O)(Cn1cncn1)c1ccc(F)cc1F |
| 167 to 168 | Oc1cc(/C=C/c2ccccn2)n(-c2ccccc2)n1 |
| 187 to 190 | CCc1nc(C)c2nnc3ccc(F)cc3n12 |
| 278 to 280 | CCOC(=O)c1c(-c2ccc(N3CCN(C)CC3)cc2)n(C)n(-c2ccc(C#N)cc2)c1=O |
| 83 to 91 | CC(CCc1cc2cccnc2n(-c2cccc(N)c2)c1=O)c1ccncc1 (stereo not drawn) |
| 70 to 74 | COc1ccc(CSC#N)cc1OCc1ccccc1 |
| 232 | COC(=O)c1cccc(-c2c(C)c(C(=O)c3ccc4nc(C)[nH]c(=O)c4c3)n3ccccc23)c1 |
| 160 | CN(Cc1cccc(-c2ccc(CC3SC(=O)NC3=O)cc2)c1)C(=O)c1ccno1 (stereo not drawn) |
| 71 to 75 | CCN1C[C@@H](O)[C@H](N(CCc2ccccc2)C(=O)c2ccccc2)C1 (relative stereo) |
| 145 to 147 | N#Cc1c(OCC(F)(F)F)nc(N)nc1N1CCc2ccccc2CC1 |
| 108 to 110 | c1ccc(CNc2ccncc2)cc1 |

| melting point [°C] | Structure (SMILES) |
| --- | --- |
| 91 to 92 | Clc1ccc(C(c2ccc(Cl)cc2)n2ncnn2)cc1 |
| 109 to 111 | COC(=O)C(C)(C)CCCOc1cc(C)c(N2C(=O)c3ccccc3C2=O)cc1C |
| 205 | CS(=O)(=O)C(=C1CN(C(c2ccccc2)c2ccccc2)C1)c1cccc(Cl)c1 |
| 208 to 209 | CC(C)(C)OC(=O)Nc1cc(Sc2ccc3c(C(=O)O)cccc3c2)ncn1 |
| 149 to 151 | O=C1c2ccccc2CN1C1CCN(c2ccc(C(OCc3ccccn3)c3ccccc3)cc2)CC1 (stereo not drawn) |
| 90 to 91 | CCOC(=O)COc1nc(-c2ccccc2)nc(C)c1C |
| 198 to 199 | CC(=O)NC1(c2ccc(Cl)c(C(F)(F)F)c2)CCN(Cc2ccccc2)CC1 |
| 227 to 229 | Cc1nc(Nc2ccccc2)sc1-c1ccnc(Nc2ccc(N3CCN(Cc4ccccc4)CC3)cc2)n1 |
| 148 to 150 | CNC(=O)c1c(-c2ccccc2)noc1CC(O)c1ccc(C)cc1 (stereo not drawn) |
| 120 | COc1ccc(C(=O)c2cc(-c3ccc(Cl)cc3)c(N3CCOCC3)s2)cc1 |
| 79 to 81 | CCCCOC(=O)c1ccccc1SN(C(=O)NC(=O)c1c(F)cccc1F)c1ccc(C(F)(F)F)cc1 |
| 112 to 113 | CC(C)CC(COc1ccc(-c2ccc(C#N)cc2)cc1)N(O)C=O (stereo not drawn) |
| 123 to 124 | COc1cc(COc2nn(-c3ccccc3)cc2C=O)ccc1OCc1csc(N2CCCCC2)n1 |
| 187 to 189 | CCOc1ccc(NC(=O)c2cnc3c(N)cccc3c2)cc1 |
| 129 to 130 | O=C(NCc1ccccc1Br)c1ccc2cnccc2n1 |
| 184 to 187 | CCOC(=O)c1cc(-c2ccc(Cl)cc2)c(Cl)nc1NC=O |
| 84 to 85 | CC(C(=O)CC#N)c1ccc(-c2ccccc2)c(F)c1 (stereo not drawn) |
| 231 to 233 | CCCc1nc2c(N)nc3ccccc3c2n1CC1(O)CCOCC1 |
| 202 to 204 | O=C(Nc1ccc2nc(CN3CCCCC3)ccc2c1)c1ccc(-c2ccc(F)cc2)cc1 |
| 235 | O=c1[nH]c2ccc(N3CCN(Cc4ccccc4)CC3)cc2c(=O)o1 |
| 174 | Cc1c(-c2ccc(C(F)(F)F)cc2)n(Cc2ccc(OCCN3CCCCC3)cc2)c2ccc(O)cc12 |
| 88 to 89 | COc1ccc(COc2cccc(C(C)O)c2OCc2ccc(OC)cc2)cc1 (stereo not drawn) |
| 160 to 162 | Cc1c(O)ccc2c1OCC1c3ccccc3OC21 (stereo not drawn) |
| 192 to 194 | CC(=O)n1ccc(-c2ccc(C(=O)N3Cc4cccn4Cc4ccccc43)cc2)n1 |
| 119 to 120 | CCSc1cc(C)nc(SCC)c1NC(=O)CSc1nc2ccccc2s1 |
